± gives the expanded uncertainty stated by the source.
Assay: xn = mol fraction of the nth substance listed
Conditions: 101 kPa, Liquid; for viscosity: Falling or rolling sphere viscometry; for mass density: Vibrating tube method

Q: For `CCCC[N+]1(C)CCCC1.[Br-]` [1-butyl-1-methylpyrrolidinium bromide] + O, which viscosity (323.15 K, x1 = 0.0265) is on record?
A: 0.879 ± 0.053 mPa·s

Q: And the viscosity (323.15 K, x1 = 0.0561)?
A: 1.42 ± 0.086 mPa·s

Q: What about the viscosity (323.15 K, x1 = 0.0871) of the same compound?
A: 2.234 ± 0.14 mPa·s

Q: And the viscosity (323.15 K, x1 = 0.1283)?
A: 3.762 ± 0.23 mPa·s

Q: What about the viscosity (323.15 K, x1 = 0.1645) of the same compound?
A: 5.403 ± 0.33 mPa·s

Q: And the viscosity (323.15 K, x1 = 0.2074)?
A: 7.915 ± 0.48 mPa·s

Q: What about the viscosity (323.15 K, x1 = 0.2525) of the same compound?
A: 11.49 ± 0.7 mPa·s

Q: And the viscosity (323.15 K, x1 = 0.28)?
A: 13.89 ± 0.84 mPa·s

Q: What about the viscosity (323.15 K, x1 = 0.3012) of the same compound?
A: 16.27 ± 0.99 mPa·s

Q: And the viscosity (323.15 K, x1 = 0.3254)?
A: 19.34 ± 1.2 mPa·s

Q: What about the mass density (323.15 K, x1 = 0.0265) of the same compound?
A: 1037.05 ± 0.38 kg/m3

Q: What about the mass density (323.15 K, x1 = 0.0561) of the same compound?
A: 1078.21 ± 0.32 kg/m3

Q: And the mass density (323.15 K, x1 = 0.0871)?
A: 1109.15 ± 0.28 kg/m3

Q: What about the mass density (323.15 K, x1 = 0.1283) of the same compound?
A: 1138.27 ± 0.28 kg/m3

Q: What about the mass density (323.15 K, x1 = 0.1645) of the same compound?
A: 1156.64 ± 0.29 kg/m3

Q: And the mass density (323.15 K, x1 = 0.2074)?
A: 1172.59 ± 0.32 kg/m3

Q: What about the mass density (323.15 K, x1 = 0.2525) of the same compound?
A: 1185.17 ± 0.37 kg/m3

Q: What about the mass density (323.15 K, x1 = 0.28) of the same compound?
A: 1191.05 ± 0.4 kg/m3

Q: What about the mass density (323.15 K, x1 = 0.3012) of the same compound?
A: 1195.06 ± 0.43 kg/m3

Q: And the mass density (323.15 K, x1 = 0.3254)?
A: 1199.08 ± 0.47 kg/m3

Q: What about the mass density (323.15 K, x1 = 1) of the same compound?
A: 1201.84 ± 2.8 kg/m3

Q: And the viscosity (328.15 K, x1 = 0.0265)?
A: 0.782 ± 0.047 mPa·s

Q: And the viscosity (328.15 K, x1 = 0.0561)?
A: 1.244 ± 0.075 mPa·s

Q: What about the viscosity (328.15 K, x1 = 0.0871) of the same compound?
A: 1.935 ± 0.12 mPa·s

Q: What about the viscosity (328.15 K, x1 = 0.1283) of the same compound?
A: 3.23 ± 0.2 mPa·s

Q: What about the viscosity (328.15 K, x1 = 0.1645) of the same compound?
A: 4.572 ± 0.28 mPa·s

Q: And the viscosity (328.15 K, x1 = 0.2074)?
A: 6.602 ± 0.4 mPa·s

Q: And the viscosity (328.15 K, x1 = 0.2525)?
A: 9.462 ± 0.57 mPa·s

Q: What about the viscosity (328.15 K, x1 = 0.28) of the same compound?
A: 11.38 ± 0.69 mPa·s

Q: And the viscosity (328.15 K, x1 = 0.3012)?
A: 13.25 ± 0.8 mPa·s

Q: And the viscosity (328.15 K, x1 = 0.3254)?
A: 15.64 ± 0.95 mPa·s

Q: And the mass density (328.15 K, x1 = 0.0265)?
A: 1034.23 ± 0.38 kg/m3

Q: And the mass density (328.15 K, x1 = 0.0561)?
A: 1074.97 ± 0.32 kg/m3

Q: And the mass density (328.15 K, x1 = 0.0871)?
A: 1105.64 ± 0.28 kg/m3

Q: And the mass density (328.15 K, x1 = 0.1283)?
A: 1134.62 ± 0.28 kg/m3

Q: And the mass density (328.15 K, x1 = 0.1645)?
A: 1152.97 ± 0.29 kg/m3

Q: What about the mass density (328.15 K, x1 = 0.2074) of the same compound?
A: 1168.97 ± 0.32 kg/m3

Q: And the mass density (328.15 K, x1 = 0.2525)?
A: 1181.63 ± 0.36 kg/m3

Q: What about the mass density (328.15 K, x1 = 0.28) of the same compound?
A: 1187.55 ± 0.4 kg/m3

Q: And the mass density (328.15 K, x1 = 0.3012)?
A: 1191.6 ± 0.43 kg/m3

Q: And the mass density (328.15 K, x1 = 0.3254)?
A: 1195.67 ± 0.46 kg/m3

Q: And the mass density (328.15 K, x1 = 1)?
A: 1198.05 ± 2.8 kg/m3

Q: What about the viscosity (333.15 K, x1 = 0.0265) of the same compound?
A: 0.705 ± 0.043 mPa·s

Q: What about the viscosity (333.15 K, x1 = 0.0561) of the same compound?
A: 1.1 ± 0.067 mPa·s

Q: And the viscosity (333.15 K, x1 = 0.0871)?
A: 1.701 ± 0.1 mPa·s

Q: And the viscosity (333.15 K, x1 = 0.1283)?
A: 2.817 ± 0.17 mPa·s

Q: What about the viscosity (333.15 K, x1 = 0.1645) of the same compound?
A: 3.923 ± 0.24 mPa·s

Q: What about the viscosity (333.15 K, x1 = 0.2074) of the same compound?
A: 5.554 ± 0.34 mPa·s

Q: And the viscosity (333.15 K, x1 = 0.2525)?
A: 7.969 ± 0.48 mPa·s

Q: What about the viscosity (333.15 K, x1 = 0.28) of the same compound?
A: 9.48 ± 0.57 mPa·s

Q: And the viscosity (333.15 K, x1 = 0.3012)?
A: 10.97 ± 0.67 mPa·s

Q: What about the viscosity (333.15 K, x1 = 0.3254) of the same compound?
A: 12.89 ± 0.78 mPa·s

Q: What about the mass density (333.15 K, x1 = 0.0265) of the same compound?
A: 1031.32 ± 0.38 kg/m3

Q: What about the mass density (333.15 K, x1 = 0.0561) of the same compound?
A: 1071.61 ± 0.32 kg/m3

Q: What about the mass density (333.15 K, x1 = 0.0871) of the same compound?
A: 1102.07 ± 0.28 kg/m3

Q: What about the mass density (333.15 K, x1 = 0.1283) of the same compound?
A: 1130.94 ± 0.28 kg/m3

Q: What about the mass density (333.15 K, x1 = 0.1645) of the same compound?
A: 1149.27 ± 0.29 kg/m3

Q: And the mass density (333.15 K, x1 = 0.2074)?
A: 1165.34 ± 0.32 kg/m3

Q: What about the mass density (333.15 K, x1 = 0.2525) of the same compound?
A: 1178.06 ± 0.36 kg/m3

Q: What about the mass density (333.15 K, x1 = 0.28) of the same compound?
A: 1184.04 ± 0.4 kg/m3

Q: And the mass density (333.15 K, x1 = 0.3012)?
A: 1188.13 ± 0.42 kg/m3

Q: And the mass density (333.15 K, x1 = 0.3254)?
A: 1192.25 ± 0.46 kg/m3

Q: What about the mass density (333.15 K, x1 = 1) of the same compound?
A: 1194.28 ± 2.8 kg/m3

Q: And the viscosity (338.15 K, x1 = 0.0265)?
A: 0.649 ± 0.039 mPa·s

Q: What about the viscosity (338.15 K, x1 = 0.0561) of the same compound?
A: 0.997 ± 0.06 mPa·s

Q: What about the viscosity (338.15 K, x1 = 0.0871) of the same compound?
A: 1.536 ± 0.093 mPa·s

Q: And the viscosity (338.15 K, x1 = 0.1283)?
A: 2.525 ± 0.15 mPa·s

Q: And the viscosity (338.15 K, x1 = 0.1645)?
A: 3.462 ± 0.21 mPa·s

Q: And the viscosity (338.15 K, x1 = 0.2074)?
A: 4.89 ± 0.3 mPa·s

Q: And the viscosity (338.15 K, x1 = 0.2525)?
A: 6.876 ± 0.42 mPa·s

Q: What about the viscosity (338.15 K, x1 = 0.28) of the same compound?
A: 8.118 ± 0.49 mPa·s

Q: What about the viscosity (338.15 K, x1 = 0.3012) of the same compound?
A: 9.372 ± 0.57 mPa·s

Q: And the viscosity (338.15 K, x1 = 0.3254)?
A: 10.94 ± 0.66 mPa·s

Q: What about the mass density (338.15 K, x1 = 0.0265) of the same compound?
A: 1028.4 ± 0.37 kg/m3

Q: What about the mass density (338.15 K, x1 = 0.0561) of the same compound?
A: 1068.07 ± 0.32 kg/m3

Q: What about the mass density (338.15 K, x1 = 0.0871) of the same compound?
A: 1098.46 ± 0.28 kg/m3

Q: What about the mass density (338.15 K, x1 = 0.1283) of the same compound?
A: 1127.23 ± 0.28 kg/m3

Q: What about the mass density (338.15 K, x1 = 0.1645) of the same compound?
A: 1145.56 ± 0.28 kg/m3

Q: And the mass density (338.15 K, x1 = 0.2074)?
A: 1161.68 ± 0.31 kg/m3

Q: What about the mass density (338.15 K, x1 = 0.2525) of the same compound?
A: 1174.49 ± 0.36 kg/m3

Q: What about the mass density (338.15 K, x1 = 0.28) of the same compound?
A: 1180.52 ± 0.39 kg/m3

Q: And the mass density (338.15 K, x1 = 0.3012)?
A: 1184.65 ± 0.42 kg/m3

Q: And the mass density (338.15 K, x1 = 0.3254)?
A: 1188.82 ± 0.46 kg/m3

Q: What about the mass density (338.15 K, x1 = 1) of the same compound?
A: 1190.53 ± 2.7 kg/m3

Q: What about the viscosity (343.15 K, x1 = 0.0265) of the same compound?
A: 0.586 ± 0.035 mPa·s

Q: And the viscosity (343.15 K, x1 = 0.0561)?
A: 0.887 ± 0.054 mPa·s

Q: And the viscosity (343.15 K, x1 = 0.0871)?
A: 1.366 ± 0.083 mPa·s

Q: And the viscosity (343.15 K, x1 = 0.1283)?
A: 2.229 ± 0.14 mPa·s

Q: What about the viscosity (343.15 K, x1 = 0.1645) of the same compound?
A: 3.005 ± 0.18 mPa·s

Q: What about the viscosity (343.15 K, x1 = 0.2074) of the same compound?
A: 4.186 ± 0.25 mPa·s

Q: And the viscosity (343.15 K, x1 = 0.2525)?
A: 5.839 ± 0.35 mPa·s

Q: And the viscosity (343.15 K, x1 = 0.28)?
A: 6.858 ± 0.42 mPa·s

Q: And the viscosity (343.15 K, x1 = 0.3012)?
A: 7.882 ± 0.48 mPa·s

Q: What about the viscosity (343.15 K, x1 = 0.3254) of the same compound?
A: 9.135 ± 0.55 mPa·s

Q: And the mass density (343.15 K, x1 = 0.0265)?
A: 1024.59 ± 0.37 kg/m3

Q: And the mass density (343.15 K, x1 = 0.0561)?
A: 1065.42 ± 0.32 kg/m3

Q: And the mass density (343.15 K, x1 = 0.0871)?
A: 1094.8 ± 0.28 kg/m3

Q: And the mass density (343.15 K, x1 = 0.1283)?
A: 1123.48 ± 0.28 kg/m3

Q: What about the mass density (343.15 K, x1 = 0.1645) of the same compound?
A: 1141.82 ± 0.28 kg/m3

Q: And the mass density (343.15 K, x1 = 0.2074)?
A: 1158 ± 0.31 kg/m3

Q: What about the mass density (343.15 K, x1 = 0.2525) of the same compound?
A: 1170.9 ± 0.36 kg/m3

Q: And the mass density (343.15 K, x1 = 0.28)?
A: 1176.99 ± 0.39 kg/m3

Q: What about the mass density (343.15 K, x1 = 0.3012) of the same compound?
A: 1181.16 ± 0.42 kg/m3

Q: And the mass density (343.15 K, x1 = 0.3254)?
A: 1185.37 ± 0.46 kg/m3

Q: What about the mass density (343.15 K, x1 = 1) of the same compound?
A: 1186.8 ± 2.7 kg/m3

Source: the NIST ThermoML archive (doi:10.1016/j.tca.2014.05.028)
